Results as given in ChEMBL document CHEMBL4699487, “Discovery of ONO-8590580: A novel, potent and selective GABA α negative allosteric modulator for the treatment of cognitive disorders” (Bioorg Med Chem Lett, 2020).

Tests used:
[1] = Oral bioavailability in rat at 3 mg/kg; assay type: ADME, organism-based; settings: in vivo
[2] = AUC infinity in rat at 3 mg/kg, po; assay type: ADME, organism-based; set-up: time infinity, route oral, dose 3 mg/kg; settings: in vivo
[3] = Cmax in rat at […], iv; assay type: ADME, organism-based; set-up: route intravenous, dose 0.44 mg/kg; settings: in vivo
[4] = Cmax in rat at 3 mg/kg, po; assay type: ADME, organism-based; set-up: route oral, dose 3 mg/kg; settings: in vivo
[5] = Apparent permeability in MDCK-MDR1 cells; assay type: ADME, cell-based, Canis lupus familiaris; settings: dog
[6] = AUC infinity in rat at […], iv; assay type: ADME, organism-based; set-up: route intravenous, time infinity, dose 0.44 mg/kg; settings: in vivo
[7] = Volume of distribution at steady state in rat at […], iv; assay type: ADME, organism-based; settings: in vivo, dose 0.44 mg/kg, read-out: Vdss

Cc1c(F)c(Nc2ccc(-c3cn(C)cn3)cn2)cc2c1ncn2CC1CC1
bioavailability [1]: 65%
AUC(0-inf) [2]: 1780 ng·h/mL
Cmax [3]: 278 ng/mL
Cmax [4]: 520 ng/mL
Papp [5]: 47 ×10⁻⁶ cm/s
AUC(0-inf) [6]: 400 ng·h/mL
Vd [7]: 1.7 L/kg
